The target in the assay is CFTR-mediated chloride transport (Homo sapiens, UniProt P13569). The format is cell-based. The conditions noted are these: enteroid cells incubated with test compound 18-24 hours, acute 10 μM forskolin and 300 nM Compound III; for Max. Activity: % of chloride transport with 3 μM Compound A, 3 μM Compound II and 300 nM acute Compound III triple combination control. A digest of the protocol:
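Membrane-potential fluorescence AUC over 15 min quantified CFTR chloride transport after acute forskolin (10 μM), IBMX (100 μM) and Compound III (300 nM) in chloride-free buffer. Human enteroid cells were pretreated with compound for 18–24 h; % Activity is relative to 3 μM Compound A + 3 μM Compound II + 300 nM Compound III.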

As a reminder, the EC50 is the concentration needed to bring the measured effect to its halfway point.

The structures appear in SMILES notation. Some results are limits rather than exact numbers.

Chain of CFTR-mediated chloride transport (P13569 whole entry, looked up): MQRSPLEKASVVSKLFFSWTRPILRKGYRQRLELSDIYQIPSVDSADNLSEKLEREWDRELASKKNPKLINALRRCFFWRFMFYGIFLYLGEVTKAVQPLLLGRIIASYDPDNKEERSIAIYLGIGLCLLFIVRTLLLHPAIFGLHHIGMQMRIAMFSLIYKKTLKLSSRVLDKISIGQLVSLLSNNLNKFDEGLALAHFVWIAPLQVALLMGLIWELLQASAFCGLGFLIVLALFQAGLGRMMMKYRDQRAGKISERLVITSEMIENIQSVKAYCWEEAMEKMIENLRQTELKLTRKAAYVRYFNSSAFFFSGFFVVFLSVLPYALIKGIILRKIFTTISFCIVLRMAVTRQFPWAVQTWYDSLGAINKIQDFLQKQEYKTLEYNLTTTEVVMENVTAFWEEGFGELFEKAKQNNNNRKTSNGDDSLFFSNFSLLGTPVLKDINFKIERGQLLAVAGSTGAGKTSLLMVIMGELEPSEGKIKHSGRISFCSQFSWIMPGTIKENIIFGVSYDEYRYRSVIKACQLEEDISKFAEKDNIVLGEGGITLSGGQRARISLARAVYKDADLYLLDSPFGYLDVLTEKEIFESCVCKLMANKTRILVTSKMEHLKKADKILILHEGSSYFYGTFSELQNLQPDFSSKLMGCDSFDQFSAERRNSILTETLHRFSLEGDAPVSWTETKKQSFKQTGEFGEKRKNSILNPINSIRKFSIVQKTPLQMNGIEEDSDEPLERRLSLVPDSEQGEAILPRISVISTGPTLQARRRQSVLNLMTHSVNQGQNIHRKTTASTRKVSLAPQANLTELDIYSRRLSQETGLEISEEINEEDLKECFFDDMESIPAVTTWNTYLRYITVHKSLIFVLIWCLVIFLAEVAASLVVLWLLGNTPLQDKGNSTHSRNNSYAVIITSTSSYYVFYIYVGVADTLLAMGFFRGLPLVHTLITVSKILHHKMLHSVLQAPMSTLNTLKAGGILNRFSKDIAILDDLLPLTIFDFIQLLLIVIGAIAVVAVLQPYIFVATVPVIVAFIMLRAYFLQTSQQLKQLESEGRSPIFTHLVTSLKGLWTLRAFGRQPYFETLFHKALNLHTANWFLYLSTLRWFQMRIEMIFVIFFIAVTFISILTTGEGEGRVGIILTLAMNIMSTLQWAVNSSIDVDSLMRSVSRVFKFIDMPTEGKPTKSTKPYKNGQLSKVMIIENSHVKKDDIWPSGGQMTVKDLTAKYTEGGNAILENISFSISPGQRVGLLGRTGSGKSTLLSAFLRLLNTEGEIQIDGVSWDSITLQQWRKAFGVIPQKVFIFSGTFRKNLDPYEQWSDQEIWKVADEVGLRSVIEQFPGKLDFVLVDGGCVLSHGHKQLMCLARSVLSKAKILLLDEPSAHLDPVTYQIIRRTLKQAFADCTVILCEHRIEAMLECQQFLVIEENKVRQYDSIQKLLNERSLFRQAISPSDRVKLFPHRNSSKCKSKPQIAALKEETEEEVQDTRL

Consider `CC1(C)C[C@@H]2CCCNc3cccc(n3)S(=O)(=O)NC(=O)c3ccc(N4CCC5(CCCCC5)C4=O)nc3N1C2` [Compound 222, (14S)-12,12-dimethyl-8-{1-oxo-2-azaspiro[4.5]decan-2-yl}-2λ^6-thia-3,9,11,18,23-pentaazatetracyclo[17.3.1.111,14.05,10]tetracosa-1(22),5,7,9,19(23),20-hexaene-2,2,4-trione], for which the EC50 is less than 1000 nM and the “Max. Activity” value is given as “++ (++ is 30-60%)”.

For `CC1(C)C[C@@H]2CCCNc3cccc(n3)S(=O)(=O)NC(=O)c3ccc(N4CCN(CCC(C)(C)C(F)(F)F)C4=O)nc3N1C2` [Compound 223, (14S)-12,12-Dimethyl-8-[2-oxo-3-(4,4,4-trifluoro-3,3-dimethylbutyl)imidazolidin-1-yl]-2λ^6-thia-3,9,11,18,23-pentaazatetracyclo[17.3.1.111,14.05,10]tetracosa-1(22),5,7,9,19(23),20-hexaene-2,2,4-trione], the EC50 was less than 1000 nM and the “Max. Activity” value is “+++ (+++ is >60%)”.

As to `CC1(C)C[C@@H]2CCCNc3cccc(n3)S(=O)(=O)NC(=O)c3ccc(N4CCN(CC(C)(C)C(F)(F)F)C4=O)nc3N1C2` [Compound 225, (14S)-12,12-dimethyl-8-[2-oxo-3-(3,3,3-trifluoro-2,2-dimethylpropyl)imidazolidin-1-yl]-2λ^6-thia-3,9,11,18,23-pentaazatetracyclo[17.3.1.111,14.05,10]tetracosa-1(22),5,7,9,19(23),20-hexaene-2,2,4-trione], the EC50 was less than 1000 nM and the “Max. Activity” value is listed as “++ (++ is 30-60%)”.

Regarding `CC1(C)C[C@@H]2CCCNc3cccc(n3)S(=O)(=O)NC(=O)c3ccc(N4CCN(CCC56CC7CC(CC(C7)C5)C6)C4=O)nc3N1C2` [Compound 228, (14S)-8-{3-[2-(Adamantan-1-yl)ethyl]-2-oxoimidazolidin-1-yl}-12,12-dimethyl-2λ^6-thia-3,9,11,18,23-pentaazatetracyclo[17.3.1.111,14.05,10]tetracosa-1(22),5,7,9,19(23),20-hexaene-2,2,4-trione], the EC50 is less than 1000 nM and the “Max. Activity” value is “++ (++ is 30-60%)”.

As for `CC1(C)C[C@@H]2CCCNc3cccc(n3)S(=O)(=O)NC(=O)c3ccc(N4CCN(CC56CC7CC(CC(C7)C5)C6)C4=O)nc3N1C2` [Compound 229, (14S)-8-{3-[(adamantan-1-yl)methyl]-2-oxoimidazolidin-1-yl}-12,12-dimethyl-2λ^6-thia-3,9,11,18,23-pentaazatetracyclo[17.3.1.111,14.05,10]tetracosa-1(22),5,7,9,19(23),20-hexaene-2,2,4-trione], the EC50 is less than 1000 nM and the “Max. Activity” value is “++ (++ is 30-60%)”.

For `CC1(C)C[C@@H]2CCCNc3cccc(n3)S(=O)(=O)NC(=O)c3ccc(N4CCN(C56CC7CC(CC(C7)C5)C6)C4=O)nc3N1C2` [Compound 230, (14S)-8-[3-(Adamantan-1-yl)-2-oxoimidazolidin-1-yl]-12,12-dimethyl-2λ^6-thia-3,9,11,18,23-pentaazatetracyclo[17.3.1.111,14.05,10]tetracosa-1(22),5,7,9,19(23),20-hexaene-2,2,4-trione], the EC50 was less than 1000 nM and the “Max. Activity” value was “+ (+ is <30%)”.

Turning to `CC(C)(C)CCN1CCN(c2ccc3c(n2)N2C(CCCNc4cccc(n4)S(=O)(=O)NC3=O)CCC2(C)C)C1=O` (stereo not drawn) [Compound 232, 8-[3-(3,3-dimethylbutyl)-2-oxoimidazolidin-1-yl]-12,12-dimethyl-2λ^6-thia-3,9,11,19,24-pentaazatetracyclo[18.3.1.05,10.011,15]tetracosa-1(23),5,7,9,20(24),21-hexaene-2,2,4-trione], the EC50 is more than 3000 nM and the “Max. Activity” value was “+ (+ is <30%)”.

Consider `CC1(C)C[C@@H]2CCCNc3cccc(n3)S(=O)(=O)NC(=O)c3ccc(N4CCC(OCCC(C)(C)C(F)(F)F)C4=O)nc3N1C2` (stereo partly drawn) [Compound 237, (14S)-12,12-dimethyl-8-[2-oxo-3-(4,4,4-trifluoro-3,3-dimethylbutoxy)pyrrolidin-1-yl]-2λ^6-thia-3,9,11,18,23-pentaazatetracyclo[17.3.1.111,14.05,10]tetracosa-1(22),5,7,9,19(23),20-hexaene-2,2,4-trione], for which the EC50 is less than 1000 nM and the “Max. Activity” value is recorded as “+++ (+++ is >60%)”.

For `CC1(C)C[C@@H]2CCCNc3nc(ccc3O)S(=O)(=O)NC(=O)c3ccc(-n4ccc(OCCC5C6(CC6)C56CC6)n4)nc3N1C2` [Compound 254, (14S)-8-[3-(2-{dispiro[2.0.2.1]heptan-7-yl}ethoxy)-1H-pyrazol-1-yl]-20-hydroxy-12,12-dimethyl-2λ^6-thia-3,9,11,18,23-pentaazatetracyclo[17.3.1.111,14.05,10]tetracosa-1(23),5,7,9,19,21-hexaene-2,2,4-trione], the EC50 was less than 1000 nM and the “Max. Activity” value is reported as “++ (++ is 30-60%)”.

As for `CC1(C)C[C@@H]2CCCNc3nc(ccc3O)S(=O)(=O)NC(=O)c3ccc(-n4ccc(OCCCC5(C(F)(F)F)CC5)n4)nc3N1C2` [Compound 255, (14S)-20-hydroxy-12,12-dimethyl-8-(3-{3-[1-(trifluoromethyl)cyclopropyl]propoxy}-1H-pyrazol-1-yl)-2λ^6-thia-3,9,11,18,23-pentaazatetracyclo[17.3.1.111,14.05,10]tetracosa-1(22),5,7,9,19(23),20-hexaene-2,2,4-trione], the half-maximal effective concentration (EC50) is less than 1000 nM and the “Max. Activity” value is “++ (++ is 30-60%)”.

In the case of `CC1(C)C[C@@H]2CCCNc3cccc(n3)S(=O)(=O)NC(=O)c3ccc(-n4ccc(OCC(O)C5C6(CC6)C56CC6)n4)nc3N1C2` (stereo partly drawn) [Compound 257, (14S)-8-[3-(2-{dispiro[2.0.2.1]heptan-7-yl}-2-hydroxyethoxy)-1H-pyrazol-1-yl]-12,12-dimethyl-2λ^6-thia-3,9,11,18,23-pentaazatetracyclo[17.3.1.111,14.05,10]tetracosa-1(22),5,7,9,19(23),20-hexaene-2,2,4-trione], the EC50 was less than 1000 nM and the “Max. Activity” value was “+++ (+++ is >60%)”.

For the compound `CC1(C)C[C@@H]2CCCNc3cccc(n3)S(=O)(=O)NC(=O)c3ccc(-n4ccc(OCC(=O)C5C6(CC6)C56CC6)n4)nc3N1C2` [Compound 258, (14S)-8-[3-(2-{Dispiro[2.0.2.1]heptan-7-yl}-2-oxoethoxy)-1H-pyrazol-1-yl]-12,12-dimethyl-2λ^6-thia-3,9,11,18,23-pentaazatetracyclo[17.3.1.111,14.05,10]tetracosa-1(22),5,7,9,19(23),20-hexaene-2,2,4-trione], the EC50 is less than 1000 nM and the “Max. Activity” value is recorded as “+++ (+++ is >60%)”.

Regarding `CC1(C)C[C@@H]2CCCNc3ccc(O)c(n3)S(=O)(=O)NC(=O)c3ccc(-n4ccc(OCCC5C6(CC6)C56CC6)n4)nc3N1C2` [Compound 260, (14S)-8-[3-(2-{dispiro[2.0.2.1]heptan-7-yl}ethoxy)-1H-pyrazol-1-yl]-22-hydroxy-12,12-dimethyl-2λ^6-thia-3,9,11,18,23-pentaazatetracyclo[17.3.1.111,14.05,10]tetracosa-1(22),5,7,9,19(23),20-hexaene-2,2,4-trione], the EC50 is less than 1000 nM and the “Max. Activity” value is “+++ (+++ is >60%)”.

As for `CC1(C)C[C@@H]2CCCNc3ccc(O)c(n3)S(=O)(=O)NC(=O)c3ccc(-n4ccc(OCCCC5(C(F)(F)F)CC5)n4)nc3N1C2` [Compound 261, (14S)-22-hydroxy-12,12-dimethyl-8-(3-{3-[1-(trifluoromethyl)cyclopropyl]propoxy}-1H-pyrazol-1-yl)-2λ^6-thia-3,9,11,18,23-pentaazatetracyclo[17.3.1.111,14.05,10]tetracosa-1(22),5,7,9,19(23),20-hexaene-2,2,4-trione], the EC50 is less than 1000 nM and the “Max. Activity” value is “++ (++ is 30-60%)”.

As to `CC1(C)CC2CCCNc3cccc(n3)S(=N)(=O)NC(=O)c3ccc(-n4ccc(OCCC5(C(F)(F)F)CC5)n4)nc3N1C2` (stereo not drawn) [Compound 262, 2-imino-12,12-dimethyl-8-(3-{2-[1-(trifluoromethyl)cyclopropyl]ethoxy}-1H-pyrazol-1-yl)-2λ^6-thia-3,9,11,18,23-pentaazatetracyclo[17.3.1.111,14.05,10]tetracosa-1(23),5,7,9,19,21-hexaene-2,4-dione], the EC50 was less than 1000 nM and the “Max. Activity” value is “+++ (+++ is >60%)”.

For the compound `CC1(C)CC2CCCNc3cccc(n3)S(=N)(=O)NC(=O)c3ccc(-n4ccc(OCCC5(C(F)(F)F)CC5)n4)nc3N1C2` (stereo not drawn) [Compound 263, 2-imino-12,12-dimethyl-8-(3-{2-[1-(trifluoromethyl)cyclopropyl]ethoxy}-1H-pyrazol-1-yl)-2λ^6-thia-3,9,11,18,23-pentaazatetracyclo[17.3.1.111,14.05,10]tetracosa-1(23),5,7,9,19,21-hexaene-2,4-dione], the EC50 was less than 1000 nM and the “Max. Activity” value was “++ (++ is 30-60%)”.

As to `CC1(C)C[C@@H]2CCCNc3cc(O)cc(n3)S(=O)(=O)NC(=O)c3ccc(-n4ccc(OCCC5C6(CC6)C56CC6)n4)nc3N1C2` [Compound 264, (14S)-8-[3-(2-{Dispiro[2.0.2.1]heptan-7-yl}ethoxy)-1H-pyrazol-1-yl]-21-hydroxy-12,12-dimethyl-2λ^6-thia-3,9,11,18,23-pentaazatetracyclo[17.3.1.111,14.05,10]tetracosa-1(23),5,7,9,19,21-hexaene-2,2,4-trione], the EC50 is less than 1000 nM and the “Max. Activity” value is “+++ (+++ is >60%)”.

For the compound `CC1(C)C[C@@H]2CCCNc3cc(O)cc(n3)S(=O)(=O)NC(=O)c3ccc(-n4ccc(OCCCC5(C(F)(F)F)CC5)n4)nc3N1C2` [Compound 265, (14S)-21-Hydroxy-12,12-dimethyl-8-(3-{3-[1-(trifluoromethyl)cyclopropyl]propoxy}-1H-pyrazol-1-yl)-2λ^6-thia-3,9,11,18,23-pentaazatetracyclo[17.3.1.111,14.05,10]tetracosa-1(22),5,7,9,19(23),20-hexaene-2,2,4-trione], the EC50 was less than 1000 nM and the “Max. Activity” value was “+++ (+++ is >60%)”.

The record behind these values is US11866450B2, “Modulators of Cystic Fibrosis Transmembrane Conductance regulator, pharmaceutical compositions, methods of treatment, and process for making the modulators” (priority 2018, dated 2024).
